Tests used:
HCC827 cells = experiment: In vivo growth of CD26-positive lung cancer cell line HCC827 in SCID mice (tumor weight); settings: days 1 and 4, day 7
Method: HCC827 cells (1.8×10^5 cells/animal) were subcutaneously transplanted to the backs of female SCID mice. The day of transplantation was defined as day 0. At day 1, YS110 (10 mg/kg) alone, cisplatin (0.5 mg/kg)+pemetrexed (50 mg/kg), or YS110 (10 mg/kg)+cisplatin (0.5 mg/kg)+pemetrexed (50 mg/kg) was intraperitoneally administered to the mice. At day 4, the same amount of the same drug was administered by the same method as in day 1 (n=6). At day 7, their tumors were excised, and the tumor weights were measured. Significant difference was tested by two-tailed t-test (vs Cont).
HCC827 cells (0.9×10^5 cells/animal) were subcutaneously transplanted to the backs of female SCID mice. The day of transplantation was defined as day 0. YS110 (10 mg/kg, intraperitoneal administration), gefitinib (100 mg/kg, oral administration), or YS110 (10 mg/kg, intraperitoneal administration)+gefitinib (100 mg/kg, oral administration) was administered to the mice twice (days 1 and 4). At day 7, their tumors were excised, and the tumor weights were measured. Significant difference was tested by two-tailed t-test (vs Cont).

MESO1 cells [1] = experiment: Boyden chamber invasion assay, MESO1; assay type: cell-based; settings: cisplatin 0, 3, or 10 μM and YS110 0, 10, or 20 μg/ml; 24 hours
Method: MESO1 cells or H2452 cells (2.5×10^4 cells/well) were inoculated to a Boyden chamber. One hour later, cisplatin (5, 10, or 30 μM) or pemetrexed (1, 10, or 30 μM) was added thereto (n=5), followed by Boyden chamber invasion assay. 24 hours after the cell inoculation, invasive cells were stained with Diff-Quik-staining kit. Significant difference was tested by two-tailed t-test (vs Cont).
(§1) MESO1 cells or H2452 cells (2.5×10^4 cells/well) were inoculated to a Boyden chamber. One hour later, the combination of cisplatin (0, 3, or 10 μM) and pemetrexed (0, 10, or 30 μM) was added thereto (n=5), followed by Boyden chamber invasion assay. 24 hours after the cell inoculation, invasive cells were stained with Diff-Quik-staining kit. Significant difference was tested by two-tailed t-test (vs Cont).
as §1, with “MESO1” for “MESO1 cells or H2452”, “YS110” for “pemetrexed”, “20 μg/ml)” for “30 μM)”, “Cont). Next, the interaction of YS110 with cisplatin-pemetrexed concomitant use was studied. The interaction was analyzed by two-way ANOVA.” for “Cont).”

H226 = experiment: In vivo growth of epithelioid mesothelioma cell H226 in SCID mice (tumor weight); settings: YS110 10 mg/kg, gemcitabine 20 mg/kg, intraperitoneal, days 2 and 4; day 7
Method: H226 (3.8×10^5 cells/animal) was subcutaneously transplanted to the backs of female SCID mice. The day of transplantation was defined as day 0. YS110 (10 mg/kg), gemcitabine (20 mg/kg), or YS110 (10 mg/kg)+gemcitabine (20 mg/kg) was intraperitoneally administered to the mice twice (days 2 and 4) (n=6). At day 7, their tumors were excised, and the tumor weights were measured. Significant difference was tested by two-tailed t-test (vs Cont). The interaction between YS110 and gemcitabine used concomitantly was analyzed by two-way ANOVA.

HCC4006 cells = experiment: In vivo growth of CD26-positive lung cancer cell line HCC4006 in SCID mice (tumor weight); settings: YS110 10 mg/kg intraperitoneal, gefitinib 100 mg/kg oral, days 1 and 4; day 7
MESO1 cells [2] = experiment: MTT cell growth assay, MESO1; assay type: cell-based; settings: day 2
Method: MESO1 or H2452 cells (2×10^3 cells/well) were inoculated to a 96-well plate. One hour later, cisplatin or pemetrexed was added thereto at 10^−9, 10^−8, 10^−7, 10^−6, 10^−5, or 10^−4 M (n=6). At day 2, MTT assay was conducted.
MESO1 cells (2×10^3 cells/well) were inoculated to a 96-well plate. One hour later, the combination of 0.3, 3, or 10 μM cisplatin and 0.1, 3, or 10 μg/ml YS110, or the combination of 0.03, 0.3, or 1 μM pemetrexed and 0.1, 3, or 10 μg/ml YS110 was added thereto. At day 2, MTT assay was conducted. Significant difference was tested by two-tailed t-test (vs Cont).
MESO1 cells (2×10^3 cells/well) or H2452 cells (2×10^3 cells/well) were inoculated to a 96-well plate. One hour later, 0.3 μM cisplatin-0.1 μM pemetrexed combination, or YS110 (10 μg/ml) plus the 0.3 μM cisplatin-0.1 μM pemetrexed combination was added thereto (n=6). At day 2, MTT assay was conducted. Significant difference was tested by two-tailed t-test (vs Cont).
Gemcitabine was studied for its effect on the growth of a mesothelioma cell line. A mesothelioma cell line MESO1, JMN, H2452, or H226 (2×10^3 cells/well) was inoculated to a 96-well plate. One hour later, gemcitabine (10^−9, 10^−8, 10^−7, 10^−6, 10^−5, or 10^−4 M) was added thereto (N=6). 2 days later, MTT assay was conducted. Significant difference was tested by two-tailed t-test (vs Cont).
MESO1 cells (2×10^3 cells/well) were inoculated to a 96-well plate. One hour later, gemcitabine (0, 10^−8, 3×10^−8, or 10^−7 M) and YS110 (0, 1, 3, or 10 μg/ml) were added thereto in combination. At day 2, MTT assay was conducted. Significant difference was tested by two-tailed t-test (vs Cont). Next, interaction in concomitant use of medications was studied (n=6). The interaction between YS110 and gemcitabine used concomitantly was analyzed by two-way ANOVA.
MESO1, JMN, H2452 or H226 cells (2×10^3 cells/well were inoculated to a 96-well plate. One hour later, 3×10^−8 M or 10^−7 M gemcitabine was added thereto by concomitant use with the combination of cisplatin (0, 0.1, 0.3, or 1 μM) and pemetrexed (0, 0.03, 0.1, or 0.3 μM) (n=6). At day 2, MTT assay was conducted.
The growth inhibitory effects of cisplatin (10^−9 to 10^−4 M) and pemetrexed (10^−9 to 10^−4 M) were compared using the MESO1 and JMN cell lines.
The growth inhibitory effect of gemcitabine (10^−9 to 10^−4 M) was compared using MESO1, H2452, JMN, and H226 cell lines.

[3] = in vivo; cited from earlier work

Substance: YS110: humanized anti-CD26 antibody designed based on anti-CD26 mouse antibody 14D10; SEQ ID NO: 17 and 18
- effect of YS110 on the effect of gefitinib (tumor weight) (HCC827 cells; YS110 10 mg/kg intraperitoneal, gefitinib 100 mg/kg oral): potentiated
- effect of YS110 on the effect of cisplatin-pemetrexed (tumor weight) (HCC827 cells; YS110 10 mg/kg, cisplatin 0.5 mg/kg, pemetrexed 50 mg/kg, intraperitoneal): potentiated
- effect of YS110 on the cell invasion inhibitory action of cisplatin-pemetrexed (MESO1 cells [1]): potentiated
- inhibitory effect (tumor weight) (H226): 34%
- effect of YS110 on the effect of gefitinib (tumor weight) (HCC4006 cells): potentiated
- effect of YS110 on the cell growth inhibitory effect of pemetrexed (MESO1 cells [2]; 0.03, 0.3, or 1 μM pemetrexed and 0.1, 3, or 10 μg/ml YS110): potentiated
- effect of YS110 on the cell growth inhibitory effect of cisplatin (MESO1 cells [2]; 0.3, 3, or 10 μM cisplatin and 0.1, 3, or 10 μg/ml YS110): potentiated
- effect of YS110 on the cell growth inhibitory effect of cisplatin-pemetrexed (MESO1 cells [2]; YS110 10 μg/ml plus 0.3 μM cisplatin-0.1 μM pemetrexed): potentiated
- effect of YS110 on the growth inhibitory effect of gemcitabine (MESO1 cells [2]; gemcitabine 10^−8, 3×10^−8, or 10^−7 M and YS110 1, 3, or 10 μg/ml): potentiated
- safety in phase I clinical trial [3]: demonstrated its safety

From US11273217B2, “Cancer treatment composition combining anti-CD26 antibody and other anticancer agent” (Y's AC Co., Ltd., priority 2015, dated 2022)
